Laboratory results published in patent publication EP0454461A1, “Selective amplification system using Q beta replicase, a hybridization assay and a method of detecting and assessing concentration of target nucleic acid in liquid samples” (GENE-TRAK SYSTEMS CORPORATION, priority 1990, dated 1991).

Assays:
Qβ replicase [1] = test: Inhibition by dyes of MDV-1 replication in linear-phase Qβ replicase reactions; assay type: biochemical, bacteriophage Qβ; conditions: about 3µg/ml dye; MDV-1 template
Experimental: A number of dyes, including ethidium bromide, ethidium bromide homodimer, propidium iodide, proflavine, quinacrine, Hoescht 33258 (bis-benzamidine), dimidium bromide and acridine orange, were tested for their ability to inhibit the replication of MDV-1 in linear-phase reactions, i.e., where the template RNA is present in excess over the enzyme and the amount of replicated RNA thus increases linearly with time. […] One of the strongest inhibitors, propidium iodide, was selected for further study. A concentration of dye producing a 70% inhibition of replication, about 3µg/ml, is sufficiently low to allow detection of the fluorescence increase produced when the dye binds to the RNA products of the reaction.

Qβ replicase [2] = test: Effect of propidium iodide on replication of wild type MDV-1 RNA in a Qβ replicase preparation (32P-CTP incorporation, geometric phase); assay type: biochemical, bacteriophage Qβ; conditions: wild type MDV-1 template
Experimental: Propidium iodide was tested for its effect on the replication of wild type RNA in a preparation of Qβ replicase. Propidium iodide in an amount of either 0, 1, or 3µg/ml was added to a reaction buffer containing: 90mM Tris HC1 (pH7.5), 14mM MgC1₂, 0.4mM each ATP, GTP, UTP, and CTP, and 10µCi α-³²P-CTP. The Qβ replicase reaction was initiated in each sample by addition of 1.2µg of Qβ replicase prepared according to the method of Eoyang and August, (1972), ibid. Aliquots of the reaction mixture were withdrawn every 5 minutes and spotted on DE81 filters (Schleicher & Schuell Inc., Keene, NH). The spotted filters were washed repeatedly with 0.5M NaPO₄, (pH7.0) to remove unincorporated nucleotide. The filters were counted for Cerenkov radiation by standard procedures in a scintillation counter. Addition of propidium iodide delayed the point in time at which levels of incorporation resulting from the replication of wild type MDV-1 template became detectable. One microgram per milliter delayed the appearance of replicated product between about 2-5 minutes, which corresponds to about 20-50% inhibition of the rate of replication in the geometric phase, and 3µg/ml delayed the appearance of product for about 20 minutes, which corresponds to approximately a 3-fold reduction in the rate of replication.

With CC[N+](C)(CC)CCC[n+]1c(-c2ccccc2)c2cc(N)ccc2c2ccc(N)cc21 [propidium iodide] the inhibition of replication (Qβ replicase [1]) was 70%, the “delay of the appearance of replicated product” value (Qβ replicase [2]; 1 µg/ml propidium iodide) was 2 to 5 min and the “inhibition of the rate of replication in the geometric phase” value (Qβ replicase [2]; 1 µg/ml propidium iodide) was 20-50%. For the same compound, the “delay of the appearance of product” value (Qβ replicase [2]; 3µg/ml propidium iodide) was “about 20 minutes” and the “reduction in the rate of replication” value (Qβ replicase [2]; 3µg/ml propidium iodide) was roughly 3 fold.
